Reference: PubChem BioAssay (NCI)
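Five compound concentrations were applied to cells in 96-well plates for 48 hours; endpoints were derived by simple linear interpolation of the resulting dose-response curve. At the TGI there is no net growth.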

Experiments:
Assay in all cases: inhibition of tumour cell growth, NCI panel, 48 h
SK-OV-3 ovarian = tested on: SK-OV-3 ovarian
HOP-92 NSCLC = tested on: HOP-92 NSCLC
OVCAR-8 ovarian = tested on: OVCAR-8 ovarian
HOP-62 NSCLC = tested on: HOP-62 NSCLC
HL-60(TB) leukemia = tested on: HL-60(TB) leukemia
SW-620 colon = tested on: SW-620 colon
786-0 renal = tested on: 786-0 renal
NCI-H460 lung = tested on: NCI-H460 lung
CCRF-CEM leukemia = tested on: CCRF-CEM leukemia
ACHN renal = tested on: ACHN renal
OVCAR-5 ovarian = tested on: OVCAR-5 ovarian
U251 CNS = tested on: U251 CNS
NCI-H23 lung = tested on: NCI-H23 lung
HCC-2998 colon = tested on: HCC-2998 colon
RXF 393 renal = tested on: RXF 393 renal
SK-MEL-5 melanoma = tested on: SK-MEL-5 melanoma
SR leukemia = tested on: SR leukemia
MOLT-4 leukemia = tested on: MOLT-4 leukemia
HT29 colon = tested on: HT29 colon
DU-145 prostate = tested on: DU-145 prostate
TK-10 renal = tested on: TK-10 renal
HCT-15 colon = tested on: HCT-15 colon
NCI/ADR-RES ovarian = tested on: NCI/ADR-RES ovarian
SNB-19 CNS = tested on: SNB-19 CNS
UACC-62 melanoma = tested on: UACC-62 melanoma
MDA-MB-231 breast = tested on: MDA-MB-231 breast
IGROV1 ovarian = tested on: IGROV1 ovarian
UO-31 renal = tested on: UO-31 renal
UACC-257 melanoma = tested on: UACC-257 melanoma
SN12C renal = tested on: SN12C renal
MCF7 breast = tested on: MCF7 breast
M14 melanoma = tested on: M14 melanoma
A549 NSCLC = tested on: A549 NSCLC
MALME-3M melanoma = tested on: MALME-3M melanoma
SNB-75 CNS = tested on: SNB-75 CNS
KM12 colon = tested on: KM12 colon
COLO 205 colon = tested on: COLO 205 colon
EKVX NSCLC = tested on: EKVX NSCLC
A498 renal = tested on: A498 renal
SF-268 CNS = tested on: SF-268 CNS
SF-295 CNS = tested on: SF-295 CNS
RPMI-8226 leukemia = tested on: RPMI-8226 leukemia
HS 578T breast = tested on: HS 578T breast
T-47D breast = tested on: T-47D breast
HCT-116 colon = tested on: HCT-116 colon
NCI-H226 lung = tested on: NCI-H226 lung
SK-MEL-28 melanoma = tested on: SK-MEL-28 melanoma
SK-MEL-2 melanoma = tested on: SK-MEL-2 melanoma
MDA-MB-435 = tested on: MDA-MB-435
CAKI-1 renal = tested on: CAKI-1 renal
K-562 leukemia = tested on: K-562 leukemia
OVCAR-4 ovarian = tested on: OVCAR-4 ovarian
OVCAR-3 ovarian = tested on: OVCAR-3 ovarian
LOX IMVI melanoma = tested on: LOX IMVI melanoma
NCI-H522 lung = tested on: NCI-H522 lung
PC-3 prostate = tested on: PC-3 prostate
SF-539 CNS = tested on: SF-539 CNS

Compound: CN1CCC2(CC1)C(=NC1CCCCC1)NC(=O)N2c1ccccc1
- TGI (SK-OV-3 ovarian): > 100 µM
- TGI (HOP-92 NSCLC): > 100 µM
- TGI (OVCAR-8 ovarian): > 100 µM
- TGI (HOP-62 NSCLC): > 100 µM
- TGI (HL-60(TB) leukemia): > 100 µM
- TGI (SW-620 colon): > 100 µM
- TGI (786-0 renal): > 100 µM
- TGI (NCI-H460 lung): > 100 µM
- TGI (CCRF-CEM leukemia): > 100 µM
- TGI (ACHN renal): > 100 µM
- TGI (OVCAR-5 ovarian): > 100 µM
- TGI (U251 CNS): > 100 µM
- TGI (NCI-H23 lung): > 100 µM
- TGI (HCC-2998 colon): > 100 µM
- TGI (RXF 393 renal): > 100 µM
- TGI (SK-MEL-5 melanoma): > 100 µM
- TGI (SR leukemia): > 100 µM
- TGI (MOLT-4 leukemia): > 100 µM
- TGI (HT29 colon): > 100 µM
- TGI (DU-145 prostate): > 100 µM
- TGI (TK-10 renal): > 100 µM
- TGI (HCT-15 colon): > 100 µM
- TGI (NCI/ADR-RES ovarian): > 100 µM
- TGI (SNB-19 CNS): > 100 µM
- TGI (UACC-62 melanoma): > 100 µM
- TGI (MDA-MB-231 breast): > 100 µM
- TGI (IGROV1 ovarian): > 100 µM
- TGI (UO-31 renal): > 100 µM
- TGI (UACC-257 melanoma): > 100 µM
- TGI (SN12C renal): > 100 µM
- TGI (MCF7 breast): > 100 µM
- TGI (M14 melanoma): > 100 µM
- TGI (A549 NSCLC): > 100 µM
- TGI (MALME-3M melanoma): > 100 µM
- TGI (SNB-75 CNS): > 100 µM
- TGI (KM12 colon): > 100 µM
- TGI (COLO 205 colon): > 100 µM
- TGI (EKVX NSCLC): > 100 µM
- TGI (A498 renal): > 100 µM
- TGI (SF-268 CNS): > 100 µM
- TGI (SF-295 CNS): > 100 µM
- TGI (RPMI-8226 leukemia): > 100 µM
- TGI (HS 578T breast): > 100 µM
- TGI (T-47D breast): > 100 µM
- TGI (HCT-116 colon): > 100 µM
- TGI (NCI-H226 lung): > 100 µM
- TGI (SK-MEL-28 melanoma): > 100 µM

Compound: Cc1cc(NCCCCCCNc2cc(C)nc3ccc(N)cc23)c2cc(N)ccc2n1
- TGI (U251 CNS): > 100 µM
- TGI (SNB-19 CNS): > 100 µM

Compound: COc1cc2ccc3ccncc3c2cc1OC
- TGI (SK-OV-3 ovarian): > 10 µM
- TGI (SK-MEL-2 melanoma): > 10 µM
- TGI (HOP-62 NSCLC): > 10 µM
- TGI (MDA-MB-435): > 10 µM
- TGI (SW-620 colon): > 10 µM
- TGI (786-0 renal): > 10 µM
- TGI (NCI-H460 lung): > 10 µM
- TGI (CCRF-CEM leukemia): > 10 µM
- TGI (ACHN renal): > 10 µM
- TGI (OVCAR-5 ovarian): > 10 µM
- TGI (U251 CNS): > 10 µM
- TGI (NCI-H23 lung): > 10 µM
- TGI (RXF 393 renal): > 10 µM
- TGI (SK-MEL-5 melanoma): > 10 µM
- TGI (SR leukemia): > 10 µM
- TGI (MOLT-4 leukemia): > 10 µM
- TGI (CAKI-1 renal): > 10 µM
- TGI (NCI/ADR-RES ovarian): > 10 µM
- TGI (UACC-62 melanoma): > 10 µM
- TGI (IGROV1 ovarian): > 10 µM
- TGI (K-562 leukemia): > 10 µM
- TGI (OVCAR-4 ovarian): > 10 µM
- TGI (MCF7 breast): > 10 µM
- TGI (M14 melanoma): > 10 µM
- TGI (A549 NSCLC): > 10 µM
- TGI (MALME-3M melanoma): > 10 µM
- TGI (SNB-75 CNS): > 10 µM
- TGI (COLO 205 colon): > 10 µM
- TGI (SF-268 CNS): > 10 µM
- TGI (RPMI-8226 leukemia): > 10 µM
- TGI (T-47D breast): > 10 µM
- TGI (SK-MEL-28 melanoma): > 10 µM

Compound: CC1=C(N2CC2)C(=O)c2ccccc2C1=O
- TGI (SK-OV-3 ovarian): > 100 µM
- TGI (SK-MEL-2 melanoma): 4.06 µM
- TGI (OVCAR-8 ovarian): 2.82 µM
- TGI (HOP-62 NSCLC): 3.21 µM
- TGI (MDA-MB-435): 2.84 µM
- TGI (HL-60(TB) leukemia): 17.1 µM
- TGI (SW-620 colon): 1.68 µM
- TGI (786-0 renal): 3.47 µM
- TGI (NCI-H460 lung): 2.39 µM
- TGI (CCRF-CEM leukemia): 15.5 µM
- TGI (ACHN renal): 1.07 µM
- TGI (OVCAR-5 ovarian): 1.69 µM
- TGI (U251 CNS): 10.3 µM
- TGI (RXF 393 renal): 2.64 µM
- TGI (OVCAR-3 ovarian): 2.89 µM
- TGI (LOX IMVI melanoma): 4.98 µM
- TGI (SK-MEL-5 melanoma): 0.405 µM
- TGI (SR leukemia): 0.279 µM
- TGI (MOLT-4 leukemia): 16.3 µM
- TGI (NCI-H522 lung): 2.36 µM
- TGI (HT29 colon): 3.07 µM
- TGI (CAKI-1 renal): 1.79 µM
- TGI (DU-145 prostate): 0.276 µM
- TGI (TK-10 renal): 6.48 µM
- TGI (HCT-15 colon): 3.52 µM
- TGI (NCI/ADR-RES ovarian): 3.14 µM
- TGI (SNB-19 CNS): 6.27 µM
- TGI (UACC-62 melanoma): 2.05 µM
- TGI (MDA-MB-231 breast): 32.8 µM
- TGI (IGROV1 ovarian): 8.58 µM
- TGI (PC-3 prostate): 3.87 µM
- TGI (K-562 leukemia): 3.5 µM
- TGI (OVCAR-4 ovarian): 7.36 µM
- TGI (UO-31 renal): 10.6 µM
- TGI (UACC-257 melanoma): 1.94 µM
- TGI (SN12C renal): 2.09 µM
- TGI (MCF7 breast): 1.82 µM
- TGI (M14 melanoma): 5.03 µM
- TGI (A549 NSCLC): 2.17 µM
- TGI (MALME-3M melanoma): 2.65 µM
- TGI (SNB-75 CNS): 2.32 µM
- TGI (KM12 colon): 2.64 µM
- TGI (COLO 205 colon): 2.05 µM
- TGI (EKVX NSCLC): 0.744 µM
- TGI (SF-268 CNS): 5.14 µM
- TGI (SF-295 CNS): 2.48 µM
- TGI (SF-539 CNS): 5.91 µM
- TGI (HS 578T breast): 4.89 µM
- TGI (T-47D breast): 28.7 µM
- TGI (HCT-116 colon): 12 µM
- TGI (NCI-H226 lung): 6.21 µM
- TGI (SK-MEL-28 melanoma): 4.33 µM
